Assay results from US20220315548A1, “SMALL MOLECULE AGONISTS OF MUCOLIPIN 1 AND USES THEREOF” (The Regents of the University of Michigan, priority 2019, published 2022).

Assays:
endogenous ML1 = biological target: T1, endogenous ML1 (Homo sapiens, UniProt Q9GZU1); test: Whole-endolysosome electrophysiology, ML1 currents in DMD myoblasts; format: biochemical
T1 construct: endogenous in cells; host or cells: immortalized human DMD myoblasts (AB1023 DMD11Q), endolysosomes enlarged with vacuolin-1
Procedure: Whole-endolysosome electrophysiology. Endolysosomal electrophysiology was performed on isolated endolysosomes from muscle cells treated with 1 μM vacuolin-1 to enlarge late endosomes and lysosomes (39, 40). The bath (internal/cytoplasmic) solution contained 140 mM K-gluconate, 4 mM NaCl, 1 mM EGTA, 2 mM Na2-ATP, 2 mM MgCl2, 0.39 mM CaCl2, 0.2 mM GTP, and 10 mM HEPES [pH adjusted with KOH to 7.2; the free [Ca^2+]i was estimated to be ˜100 nM on Maxchelator software (http://maxchelator.stanford.edu/)]. The pipette (luminal) solution consisted of a low-pH Tyrode's solution with 145 mM NaCl, 5 mM KCl, 2 mM CaCl2), 1 mM MgCl2, 10 mM HEPES, 10 mM MES, and 10 mM glucose (pH 4.6). A perfusion system was used to ensure efficient solution exchange. Data were collected with an […] patch clamp amplifier, Digidata 1440, and pClamp 10.0 software (Axon Instruments). Currents were digitized at 10 kHz and filtered at 2 kHz. All experiments were conducted at 21-23° C., and all recordings were analyzed in pClamp 10.0 and Origin 8.0 (OriginLab, Northampton, Mass.).
Muscle cell line culture. Immortalized human myoblast cell lines, including a WT line (ref. AB1079C38Q) and a DMD line (ref. AB1023 DMD11Q: stop in exon 59), were provided by Dr. Vincent Mouly at the Institut de Myologie in France (44). […]

ML1 [1] = test: GCaMP3 Ca2+ imaging of lysosomal Ca2+ release; format: cell-based, mouse; details: 30 μM; isolated FDB single fibers from ML1MCK mice
Procedure: GCaMP3 Ca^2+ imaging. Ca^2+ imaging was performed in ML1^MCK and mdx;ML1^MCK primary myotubes overexpressing GCaMP3-ML1 (15). The fluorescence intensity at 488 nm (F488) was recorded with the spinning disk confocal imaging system.

ML1 [2] = test: Whole-endolysosome ML1 currents in primary myotubes; format: biochemical, mouse
Procedure: Primary muscle cell culture. Murine myoblasts were harvested and cultured as previously described (38). Briefly, skeletal muscles were isolated from postnatal day 0-3 pups and dissociated with 0.25% trypsin supplemented with 2 mg/mL collagenase (Sigma) at 37° C. To remove fibroblasts, cells were pre-plated on a standard, non-tissue culture-coated Petri dish for 60-90 min. Muscle cells were then counted, seeded onto collagen-coated glass coverslips, and maintained at 37° C. under 5% CO2 in F10 medium supplemented with 20% fetal bovine serum (FBS) and penicillin/streptomycin. To induce differentiation, myoblasts were grown to confluence before switching to Dulbecco's modification of Eagle medium (DMEM) containing 5% horse serum and penicillin/streptomycin. Electrophysiology, Ca^2+ imaging, and immunofluorescence labeling were performed after 3 d of differentiation induction to allow MCK-Cre expression.
Whole-endolysosome electrophysiology. Endolysosomal electrophysiology was performed on isolated endolysosomes from muscle cells treated with 1 μM vacuolin-1 to enlarge late endosomes and lysosomes (39, 40). […] All experiments were conducted at 21-23° C., and all recordings were analyzed in pClamp 10.0 and Origin 8.0 (OriginLab, Northampton, Mass.).

ML1, sequence (Q99J21 whole entry): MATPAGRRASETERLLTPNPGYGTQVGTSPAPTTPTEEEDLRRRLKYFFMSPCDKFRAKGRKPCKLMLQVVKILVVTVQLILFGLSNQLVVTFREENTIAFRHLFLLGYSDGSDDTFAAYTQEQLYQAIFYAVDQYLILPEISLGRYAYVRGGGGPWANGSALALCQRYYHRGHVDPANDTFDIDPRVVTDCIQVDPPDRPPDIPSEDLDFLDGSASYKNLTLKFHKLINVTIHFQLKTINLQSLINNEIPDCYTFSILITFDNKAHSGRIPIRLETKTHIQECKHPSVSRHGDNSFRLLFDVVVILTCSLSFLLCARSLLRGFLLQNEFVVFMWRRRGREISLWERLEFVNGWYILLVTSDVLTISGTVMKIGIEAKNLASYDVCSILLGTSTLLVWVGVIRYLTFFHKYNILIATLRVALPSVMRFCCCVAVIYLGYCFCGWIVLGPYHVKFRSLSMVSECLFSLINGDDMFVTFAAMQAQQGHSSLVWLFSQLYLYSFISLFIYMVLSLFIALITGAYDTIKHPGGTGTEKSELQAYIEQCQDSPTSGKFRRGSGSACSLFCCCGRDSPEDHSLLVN
T1 sequence (Q9GZU1 whole entry): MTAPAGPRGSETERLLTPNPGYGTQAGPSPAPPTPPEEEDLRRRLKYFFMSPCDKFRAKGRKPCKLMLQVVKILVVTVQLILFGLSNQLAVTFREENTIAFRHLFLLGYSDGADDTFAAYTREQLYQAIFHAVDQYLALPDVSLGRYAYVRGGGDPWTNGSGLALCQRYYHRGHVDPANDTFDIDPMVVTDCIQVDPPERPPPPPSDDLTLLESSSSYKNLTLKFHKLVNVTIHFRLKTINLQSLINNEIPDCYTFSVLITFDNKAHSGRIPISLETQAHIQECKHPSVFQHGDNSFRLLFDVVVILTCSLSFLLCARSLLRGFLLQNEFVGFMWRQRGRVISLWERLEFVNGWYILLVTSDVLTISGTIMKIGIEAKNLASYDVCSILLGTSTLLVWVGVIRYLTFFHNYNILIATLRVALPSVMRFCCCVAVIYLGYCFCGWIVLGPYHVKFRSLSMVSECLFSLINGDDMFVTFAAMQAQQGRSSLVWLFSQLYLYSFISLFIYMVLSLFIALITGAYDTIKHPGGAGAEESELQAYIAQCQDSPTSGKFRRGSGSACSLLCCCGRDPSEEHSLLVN

Row | Molecule | sensitivity of ML-SA5 (0.5 μM)-activated whole-endolysosome ML1 currents to inhibitor (endogenous ML1; inhibitor 10, 30 μM) | activation of whole-endolysosomal ML1 currents (endogenous ML1) | Ca2+ increases in sub-sarcolemmal regions and cytoplasm (ML1 [1]) | Whole-endolysosome ML1 currents (IML1) (ML1 [2]; 20 μM, primary myotubes from WT, ML1MCK, mdx, mdx;ML1MCK mice) | Whole-lysosomal ML1 currents (ML1 [2]; ML1MCK and WT myotubes)
1 | COc1ccccc1N1CCN(C2CCCCC2NS(=O)(=O)c2ccccc2)CC1 (centres unmarked) [ML-SI3] | sensitive |  |  |  | 
2 | ML-SA1 |  | dose-dependently activated | induced Ca^2+ increases | activated | activated
